Entries after “also recorded” stand apart in the source; their conditions may differ.
Key:
P. berghei ANKA GFP = type: in vivo, C57BL/6 mice; conditions: treated twice daily days 2-3; observed from about day 5 to day 8 of infection
Description: It has previously been shown that administration of CO by inhalation protects P. berghei ANKA infected C57BL/6 mice from developing ECM (see, e.g., Pamplona et al. Nat Med (2007) 13:703-710). The inventors questioned whether CO-RMs could mimic the protection conferred by CO inhalation in P. berghei ANKA infection. To this end, a known ruthenium CORM, Ru(CO)3Cl2, also referred to herein as CORM-2, was tested on different schedules of treatment and doses in P. berghei ANKA infected C57BL/6 mice (data not shown).
Red blood cells infected with green fluorescent protein (GFP)-transgenic P. berghei ANKA and P. berghei ANKA was used to infect mice (see, e.g., Franke-Fayard et al. Mol Biochem Parasitol (2004) 137:23-33). Cryopreserved parasites were passed once through C57BL/6 or DBA-2 mice before being used to infect experimental animals. C57BL/6 or DBA-2, 6- to 8-wk-old mice (sex matched in each experiment) were infected by intra-peritoneal (i.p.) injection of 10^6 infected RBCs. The infected mice were monitored daily for clinical symptoms of experimental cerebral malaria (ECM) including hemi- or paraplegia, head deviation, tendency to roll over on stimulation, ataxia and convulsions, or ALI, including dyspnea. Mice showing severe signs of ECM at day 5, 6 or 7 post-infection (p.i.) and ALI between days 7 and 9 were sacrificed. Parasitemia was assessed by flow cytometry for mice infected with GFP-expressing P. berghei ANKA, using tail blood, as previously described (see, e.g., Pamplona et al., Nat Med (2007) 13:703-710). Mean parasitemia is expressed as percentage of infected red blood cells. For mice infected with non-GFP P. berghei parasitemia was assessed daily by microscopic counting of Giemsa-stained thin blood smears. Mean parasitemia is expressed as percentage of infected red blood cells. Survival is expressed as percentage.
In order to evaluate the clinical presentation of experimental cerebral malaria, a classification was used in clinical stages from 0 to 4 (see, e.g., Bienvenu et al., Acta Trop (2008) 106:104-8; Franklin et al., Proc Natl Acad Sci USA (2011) 108:3689-94). Briefly, stage 0 indicates no detectable clinical symptoms, stage 1, ruffled fur; stage 2, ruffled fur and unbalancing; stage 3, limb paralysis and respiratory distress and stage 4, convulsions, coma or death. The mice were clinically classified before and after the treatment to evaluate the clinical recovery.
CORM-2 (Sigma-Aldrich) and Compound 2 were solubilized using 10% dimethyl sulfoxide (DMSO; Sigma-Aldrich) in PBS. CORM-3 and Compound 1 were solubilized in PBS (lx). CORM-2 solution (20 mg/kg of body weight) was administered intravenously (i.v.) according to the chosen schedules. […] As vehicle control, we used a solution of 10% DMSO in PBS administered i.v. The concentrations of CORM-2 used in the present study were based on previous reports (see, e.g., Chen et al. Am. J. Pathol. (2009) 175:422-429; Sun et al., World. J. Gastroenterol. (2008) 14:547-553). Artesunate is presented as a powder of artesunic acid. Artesunate (AS) solution was prepared by dissolving 60 mg of anhydrous artesunic acid in 1 ml of sodium bicarbonate (5%) to form sodium artesunate and then diluted in 5 ml of NaCl (0.9%). An AS solution (i.p.) was administered at 40 mg/Kg/day, as described previously (see, e.g., Bienvenu, Acta Trop (2008) 106:104-108). The AS treatment was started when the infected non-treated mice presented the clinical stage 1 for experimental cerebral malaria.

[1] = Quantification of Ru in tissues (bio-distribution); conditions: liver, kidney, spleen, lung and brain
Description: Tricarbonyldichloro(methylthiogalactopyranoside) Ru(II) [Ru(CO)3Cl2(Gal-S-Me)], also referred to herein as Compound 1, was prepared by reacting CORM-2 with methylthiogalactopyranoside (Gal-S-Me) as described herein (see FIG. 2a and Materials and Methods section). The bio-distribution of Compound 1 in tissues was assessed by quantifying the levels of Ru and CO in the host by the method of Vreman et al., Anal Biochem (2005) 341:280-9. Liver, kidney, spleen, lung and brain tissues of non-infected mice (NI) were analyzed one hour after administration of Compound 1 and the control molecule, Compound 2 (FIG. 2b). […] The spleen is an organ that plays a crucial role in erythrophagocytosis, process important for red blood cell turnover, and recycling of iron. Erythrocytes are hydrolyzed by splenic macrophages, where the degradation of hemoglobin occurs, haem is release, and is catabolized by heme oxygenase-1 into biliverdin, carbon monoxide and ferrous iron (Fe^2+).
The tissue samples were weighed and dried at 80° C. overnight followed by 2 or more hours at 120° C. […] The Ru content was analyzed by an inductively coupled plasma-atomic emission spectrometer (ICP-AES) (model Ultima-Horiba Jobin Yvon, Longjumeau, France) using an external Ru standard method.

[2] = Lung histology (hematoxylin and eosin) in M-AALI; type: in vivo; conditions: infected DBA/2 mice
Description: For evaluation of histological features, mice were deeply anesthetized until cessation of breathing when infected control mice presented signs of ECM or ALI. The livers, lungs, and brains were removed and fixed in 10% buffered formalin for 24-72 h. Four-micron sections were cut from paraffin-embedded tissues and stained with hematoxylin and eosin according to standard procedures. Histological analyses were performed on a Leica microscope DM 2500 (Leica Microsystems).

For `C[SH]([C@@H]1OC(CO)[C@H](O)[C@H](O)C1O)[Ru]([Cl])([Cl])([CH]=O)([CH]=O)[CH]=O` (stereo partly drawn) [Compound 1, Tricarbonyldichloro(methylthiogalactopyranoside) Ru(II)], the effect on parasitemia (P. berghei ANKA GFP) was “small but significant arrest in parasitemia”, the “Ru distribution in organs” value [1] was “marked affinity for the liver; also recorded: No signs of ruthenium are found in the brain” and the “vascular congestion with pRBCs in lung tissue” value [2] was “major differences in the vascular congestion with pRBCs”.

Reference: patent publication US9611286B2, “Ruthenium carbon monoxide releasing molecules and uses thereof” (Alfama, Inc., priority 2011, dated 2017)
